Publication PMC6934184, “Selective DNA-PKcs inhibition extends the therapeutic index of localized radiotherapy and chemotherapy” (The Journal of Clinical Investigation, 2019)

Molecular target: T1, STK22B (TSSK2) (Homo sapiens, UniProt Q96PF2)
T1 construct: purchased Thermo Fisher Scientific (Life Technologies) SelectScreen
Experiment: SelectScreen Z'LYTE
Type: biochemical
Procedure, shortened: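 Percent values come from Thermo SelectScreen profiling of NU5455, combining activity and binding assays. CSF1R was run in Z'LYTE format at Km app ATP, and CAMK1 in Adapta format with ATP listed at 10.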

T1 sequence (Q96PF2 whole entry): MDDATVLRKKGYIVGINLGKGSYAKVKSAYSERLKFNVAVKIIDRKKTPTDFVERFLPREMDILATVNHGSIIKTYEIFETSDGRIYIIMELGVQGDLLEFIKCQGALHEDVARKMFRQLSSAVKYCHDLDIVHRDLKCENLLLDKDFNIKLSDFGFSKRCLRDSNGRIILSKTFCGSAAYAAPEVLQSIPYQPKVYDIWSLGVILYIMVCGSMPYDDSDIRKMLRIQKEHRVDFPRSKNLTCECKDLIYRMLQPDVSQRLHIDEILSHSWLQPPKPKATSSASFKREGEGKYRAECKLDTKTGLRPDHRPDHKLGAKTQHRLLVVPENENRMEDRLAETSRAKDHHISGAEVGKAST

`CN(C(=O)CN1CCOCC1)c1ccc2sc3c(-c4cccc5c(=O)cc(N6CC7CCC(C6)O7)oc45)cccc3c2c1` [NU5455] showed an inhibition at 1 µM of 2.8%.
